For series [1], the system named is P. aeruginosa PA27853/PLL-EGFP.
The subject of the next series is P. aeruginosa PAO1. It is filed as cell-based, Pseudomonas aeruginosa.
In series [2] the test system is PA-I lectin/adhesin expression in P. aeruginosa. It is filed as cell-based, Pseudomonas aeruginosa.
The test system of series [3] is intestinal epithelial cells. Conditions: 0.6% solution; cited from earlier work.
In a further series the test system is Endothelial cells. Kind of series: Pretreatment of endothelial cells followed by S1P or HMW PEG challenge (TEER). The format is cell-based. Conditions: 100 nM PMA; baseline 1250 ohm.
In series [4] the test system is mice inoculated with PA27853. Kind of series: Mice with slow release morphine pellets drinking PA27853.
Series [5] relates to P. aeruginosa (strain PAO1) whole cells and membrane fractions. The format is binding, Pseudomonas aeruginosa.
A further series concerns Caco-2 cells. In words: TEER of Caco-2 monolayers inoculated with PA27853 with IFN-γ. It is filed as cell-based. From the text: In addition, strains were exposed to apical media from Caco-2 cells basolaterally exposed to one or more of the various epithelial-derived cytokines. Basolateral exposure of Caco-2 cells to the combination of IFN γ and TNF α activates cellular signaling proteins that dramatically alter tight junctional proteins and function. Media from Caco-2 cells exposed to various combinations of these cytokines had no effect on PA-I expression. However, IFN-γ alone induced a direct effect on PA-I expression while none of the other compounds alone had any effect (FIG. 4). […] Using ELISA, immunofluorescence microscopy, and flow cytometry, the binding characteristics of IFNγ were determined for both whole bacteria and membrane fractions of P. aeruginosa. […] These effects were also observed with strain PAO1. […] This protein can also be immunoprecipitated from E. coli (FIG. 6C). Next, IFN-γ binding specificity to whole bacterial cells was determined using reiterative binding studies in the presence of various gram-negative bacterial strains, including P. aeruginosa. […] Finally, in order to determine if PA-I was functionally expressed in PA27853 in the presence IFN-γ, PA27853 was inoculated onto Caco-2 cell monolayers in the presence of IFN-γ and the effect on barrier dysregulating dynamics of PA27853 against this cell line were assessed to determine if IFN-γ shifted the dynamics. […]

The next series concerns the target T1, OprF (Pseudomonas aeruginosa, UniProt P13794).
T1 sequence (P13794 25-350): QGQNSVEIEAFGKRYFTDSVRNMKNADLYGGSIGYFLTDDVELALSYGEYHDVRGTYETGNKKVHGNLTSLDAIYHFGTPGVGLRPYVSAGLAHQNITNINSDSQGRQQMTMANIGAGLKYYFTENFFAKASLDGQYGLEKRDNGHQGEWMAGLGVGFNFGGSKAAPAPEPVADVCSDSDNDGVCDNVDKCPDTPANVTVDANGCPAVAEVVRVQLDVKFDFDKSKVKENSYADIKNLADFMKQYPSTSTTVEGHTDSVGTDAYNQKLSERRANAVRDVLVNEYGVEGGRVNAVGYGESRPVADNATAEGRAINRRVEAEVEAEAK
Kind of series: Binding of IFN-γ to purified OprF (ELISA). The note with it: dose-dependent.

In series [6] the test system is rhlI / C4-HSL in P. aeruginosa PAO1. Kind of series: Quorum sensing activation (rhlI mRNA, C4-HSL in supernatants). The format is cell-based, Pseudomonas aeruginosa.
In series [7] the target is protein on the surface of whole cells of P. aeruginosa (strain PAO1).
In series [8] the test system is human lung microvessel endothelial cells (HLMVEC). Kind of series: Transendothelial electrical resistance (TEER) by ECIS, HMW PEG in serum-free EBM. Conditions: thrombin 1 U/ml, control cells. The format is cell-based.
For the next series, the system named is HPAECs. In words: Intracellular calcium (Fura-2). It is filed as cell-based, human. The note with it: 1 U/ml thrombin; 1 μM S1P. A general note: Calcium flux is commonly read through the fluorescence of an indicator in the cells.
The subject of another series is MDCK monolayers. In words: Purified PA-I on epithelial monolayers (TEER, exotoxin A flux). The format is cell-based.

“Also recorded” adds a separate entry of the source. Like-named read-outs stand apart in the source and are kept apart here.

For `Nc1ncnc2c1ncn2[C@@H]1O[C@H](COP(=O)(O)OP(=O)(O)O)[C@@H](O)[C@H]1O` [ADP], the “PA-I promoter activity / expression (fluorescence)” value (from here on “PA-I promoter activity / expression”) in series [1] is on record as “no evident inducing effects”. Still for that read-out and setting: next, `Nc1ncnc2c1ncn2[C@@H]1O[C@H](COP(=O)(O)O)[C@@H](O)[C@H]1O` [AMP]: “no evident inducing effects”; `Nc1ncnc2c1ncn2[C@@H]1O[C@H](COP(=O)(O)OP(=O)(O)OP(=O)(O)O)[C@@H](O)[C@H]1O` [ATP]: “no evident inducing effects”. On to `CCCC(=O)N[C@H]1CCOC1=O` [C4-HSL, C4-homoserine lactone], for which, in the series with P. aeruginosa PAO1, the “PCN production in mvfR mutants” value is “none of these mutants produced PCN”, the “bacterial growth in TSB media” value is on record as “Neither compound had an effect on bacterial growth” and the “cell density at onset of PCN production” value is given as “a shift in the production of PCN to lower cell densities”. Further, in series [2], the “PA-I expression in vitro” value is reported as “induced PA-I expression” and the “induction of PA-I mRNA (Northern blot)” value is on record as “Induction of PA-I mRNA was observed”. Regarding `C[C@@H](O)C(=O)O` [D-lactate], the “PA-I promoter activity / expression” value in series [1] is “had no effect on PA-I promoter activity”. In the case of `CC(=O)N[C@H]1C(O)O[C@H](CO)[C@H](O)[C@@H]1O` (stereo partly drawn) [GalNAc, N-acetyl-D-galactosamine], the “adhesion of P. aeruginosa to intestinal epithelial cells” value in series [3] was “markedly decreased adhesion to intestinal epithelial cells”. For `C[C@H](O)C(=O)O` [L-lactate], the “PA-I promoter activity / expression” value in series [1] is reported as “had no effect on PA-I promoter activity”.

Turning to `COC(=O)c1ccccc1N` [MA, methyl anthranilate], the “ability of U-50,488 to enhance PCN production” value with P. aeruginosa PAO1 is “inhibited the ability of U-50,488 to enhance PCN production; also recorded: attenuated the ability of U-50,488 to enhance PCN production”. On to `Oc1ccc2c3c1O[C@H]1c4[nH]c5c(c4C[C@@]4(O)[C@@H](C2)N(CC2CC2)CC[C@]314)C[C@@]1(O)[C@H]2Cc3ccc(O)c4c3[C@@]1(CCN2CC1CC1)[C@H]5O4` [NOR, nor-binaltorphimine], for which the “U-50,488-enhanced PCN production” value with P. aeruginosa PAO1 is “completely inhibited enhanced PCN production”.

On to `CCCCCCCCCCCCCC(=O)O[C@@H]1[C@@H](C)[C@@]2(O)[C@@H](C=C(CO)C[C@]3(O)C(=O)C(C)=C[C@@H]23)[C@@H]2C(C)(C)[C@]12OC(C)=O` [PMA], for which the “time for TEER increase to return to baseline” value in the series with Endothelial cells came to 8 h.

`OC[C@H]1O[C@@H](n2cnc3c(O)ncnc32)[C@H](O)[C@@H]1O` [inosine]: the “timing of PA-I induction compared to adenosine” value in series [1] is “induced PA-I expression at an earlier time point and at lower cell densities (OD) compared to adenosine”. In series [1] (less than adenosine), the “concentration inducing PA-I expression relative to adenosine” value came to 10 fold.

As to `OC[C@H]1O[C@H](OCC2O[C@@H](O)[C@H](O)[C@@H](O)[C@@H]2O)[C@H](O)[C@@H](O)[C@H]1O` (stereo partly shown) [mellibiose], the “adhesion of P. aeruginosa to intestinal epithelial cells” value in series [3] was “markedly decreased adhesion to intestinal epithelial cells”. `CN1CC[C@]23c4c5ccc(O)c4O[C@H]2[C@@H](O)C=C[C@H]3[C@H]1C5` [morphine]: the “increase in PA-I mRNA” value in [2] was “four-fold increase”; in series [2] (PA27853, morphine 13 μM, quantitative RT-PCR) it was 4 fold. Besides, in series [4] (PA27853), the mortality result is reported as “significant mortality”. Further, the “mice developing severe sepsis” value in series [4] (PA27853 1×10^8 cfu/ml daily) is listed as 4/4. Consider `NC[C@H](O)c1ccc(O)c(O)c1` [norepinephrine], for which, in series [2], the “PA-I expression in vitro” value is given as “did not change PA-I expression; also recorded: PA-I expression was not affected by this compound”. Regarding “EGF: human cytokine tested for membrane binding”, the “binding to P. aeruginosa cells / cell membranes (ELISA)” value in series [5] was “No binding was observed”. For “IFN-γ: recombinant human interferon gamma, immune cytokine”, in the series on P. aeruginosa PAO1, the pyocyanin production entry was “increased pyocyanin production”. Moreover, in [2], the “PA-I expression in vitro” value is “induced PA-I expression”, the “concentration giving the greatest increase in PA-I protein” value turned out to be 100 ng/mL and the “induction of PA-I mRNA (Northern blot)” value is “Induction of PA-I mRNA was observed”. Besides, the “PA27853-induced decrease in Caco-2 TEER” value in the series on Caco-2 cells (5 hour time point, PA27853 alone decreased TEER by 60%) is “enhanced in the presence of IFN-γ”. For the same molecule, in the series with Caco-2 cells (without bacteria), the “Caco-2 TEER, IFN-γ alone” value was “Neither media nor IFN-γ alone altered TEER”. In addition, in series [5], the “bacterial cells that bound IFN-γ” value is recorded as 73%±3.2% and the “binding to P. aeruginosa cells / cell membranes (ELISA)” value is “avidly bound to whole fixed cells of P. aeruginosa in a dose-dependent manner”. Moreover, in the series with OprF, the “binding to purified OprF” value is “purified OprF directly binds human IFN-γ”. Moreover, the “rhlI transcription (Northern blot)” value in series [6] (PAO1) was “induced rhlI transcription”. Moreover, the C4-HSL synthesis result in [6] (PAO1, 100 ng/ml IFN-γ) is recorded as “C4-HSL synthesis was increased”. The “PA-I promoter activity / expression” value in series [1] was “Only IFN-γ induced PA-I promoter activity”. With IL-4: human cytokine, the “binding to P. aeruginosa cells / cell membranes (ELISA)” value in [5] is “No binding was observed”. Still for that read-out and setting: next, IL-10: human cytokine: “No binding was observed”; TGF-β: “No binding was observed”. With dynorphin, the PCN production result in the series on P. aeruginosa PAO1 is recorded as “enhanced PCN production in a dose-dependent manner”.

In series [7], “recombinant human IFN-γ (rH IFN-γ) (from UniProt P01579 24-166) (ligand)” had a percent of bacterial cells that bound IFN-γ of 73%.

As to thrombin, in series [8], the decrease in resistance result is given as “over 50%” and the “maximum decrease in resistance” value is “approximately 1200 ohm”. In addition, in the series on HPAECs, the “intracellular calcium on stimulation of ECs” value is on record as “induced intracellular calcium spikes”.

B1: PA-I: purified lectin/adhesin of P. aeruginosa, four 13 kDa subunits, binds D-galactose (protein, UniProt Q05097 2-122, looked up)
PA-I galactophilic lectin: AWKGEVLANNEAGQVTSIIYNPGDVITIVAAGWASYGPTQKWGPQGDREHPDQGLICHDAFCGALVMKIGNSGTIPVNTGLFRWVAPNNVQGAITLIYNDVPGTYGNNSGSFSVNIGKDQS
With B1, in the series with MDCK monolayers (purified PA-I), the “TEER of epithelial cells” value is reported as “decreased the TEER of epithelial cells to the same degree as P. aeruginosa”. For the same molecule, the “increase in exotoxin A flux across MDCK cells” value in the series on MDCK monolayers (when TEER decreased below 50% of control by pure PA-I protein) is on record as “five-fold increase”.

B2: adenosine deaminase: enzyme added to deplete the media of adenosine (protein, UniProt P00813 2-363, looked up)
Adenosine deaminase: AQTPAFDKPKVELHVHLDGSIKPETILYYGRRRGIALPANTAEGLLNVIGMDKPLTLPDFLAKFDYYMPAIAGCREAIKRIAYEFVEMKAKEGVVYVEVRYSPHLLANSKVEPIPWNQAEGDLTPDEVVALVGQGLQEGERDFGVKARSILCCMRHQPNWSPKVVELCKKYQQQTVVAIDLAGDETIPGSSLLPGHVQAYQEAVKSGIHRTVHAGEVGSAEVVKEAVDILKTERLGHGYHTLEDQALYNRLRQENMHFEICPWSSYLTGAWKPDTEHAVIRLKNDQANYSLNTDDPLIFKSTLDTDYQMTKRDMGFTEEEFKRLNINAAKSSFLPEDEKRELLDLLYKAYGMPPSASAGQNL
On to B2, for which, in series [1] (Caco-2), the “PA-I expression after depletion of adenosine from HIF-1-α activated Caco-2 media” value is reported as “even greater increase in PA-I expression”.

Source of the values: US20090186949A1, “Method for Treating Endothelial and Epithelial Cell Disorders by Administering High Molecular Weight PEG-Like Compounds” (THE UNIVERSITY OF CHICAGO, priority 2006, published 2009).
